Assays:
Format in all cases: in vivo
Abutilon theophrasti = test: Herbicidal action post-emergence (greenhouse pot trial); settings: application rate 20 g/ha, scored visually after about 3 weeks vs untreated controls
Experimental: (§1) Seeds of mono- and dicotyledonous weed plants and crop plants are laid out in sandy loam soil in plastic or wood-fiber pots, covered with earth and grown under controlled growth conditions in a greenhouse. 2 to 3 weeks after sowing, the trial plants are treated at the one-leaf stage. The compounds of the invention formulated in the form of wettable powders (WP) or emulsion concentrates (EC) were then sprayed onto the green parts of the plant as an aqueous suspension or emulsion with addition of 0.5% additive at a water application rate equivalent to 600 L/ha. After the trial plants had stood for about 3 weeks in the greenhouse, under optimal growth conditions, the effect of the preparations was scored visually by comparison with untreated controls. For example, 100% efficacy=plants have died, 0% efficacy=like control plants. Tables A1 to A15 below show the efficacies of selected compounds of the general formula (I) according to tables I.1 to I.60 on various harmful plants and an application rate corresponding to 80 g/ha or lower that were obtained by the aforementioned trial method.

Amaranthus retroflexus = test: as above; settings: application rate 20 g/ha, scored visually after about 3 weeks vs untreated controls
Experimental: as §1

Matricaria inodora = test: as above; settings: application rate 20 g/ha, scored visually after about 3 weeks vs untreated controls
Experimental: as §1

Pharbitis purpurea = test: as above; settings: application rate 20 g/ha
Experimental: as §1

Polygonum convolvulus = test: as above; settings: application rate 20 g/ha, scored visually after about 3 weeks vs untreated controls
Experimental: as §1

Stellaria media = test: as above; settings: application rate 20 g/ha, scored visually after about 3 weeks vs untreated controls
Experimental: as §1

Veronica persica = test: as above; settings: application rate 20 g/ha
Experimental: as §1

Viola tricolor = test: as above; settings: application rate 20 g/ha
Experimental: as §1

Oryza sativa = test: Crop compatibility post-emergence (greenhouse pot trial)
Experimental: as §1, with “plants.” for “plants. Tables A1 to A15 below show the efficacies of selected compounds of the general formula (I) according to tables I.1 to I.60 on various harmful plants and an application rate corresponding to 80 g/ha or lower that were obtained by the aforementioned trial method.”
(§2) Crop plant compatibilities were also scored correspondingly.
(§3) The effects observed are reported here on selected crop plants by comparison with the untreated controls (values in %).

Triticum aestivum = test: as above
Experimental: as §1, with “plants.” for “plants. Tables A1 to A15 below show the efficacies of selected compounds of the general formula (I) according to tables I.1 to I.60 on various harmful plants and an application rate corresponding to 80 g/ha or lower that were obtained by the aforementioned trial method.”
as §2, §3

Digitaria sanguinalis = test: Herbicidal action post-emergence (greenhouse pot trial); settings: application rate 20 g/ha
Experimental: as §1

Setaria viridis = test: as above; settings: application rate 20 g/ha, scored visually after about 3 weeks vs untreated controls
Experimental: as §1

Echinochloa crus-galli = test: as above; settings: application rate 20 g/ha, scored visually after about 3 weeks vs untreated controls
Experimental: as §1

SMILES | Abutilon theophrasti (Efficacy in %) (Abutilon theophrasti) [%] | Amaranthus retroflexus (Efficacy in %) (Amaranthus retroflexus) [%] | Matricaria inodora (Efficacy in %) (Matricaria inodora) [%] | Pharbitis purpurea (Efficacy in %) (Pharbitis purpurea) [%] | Polygonum convolvulus (Efficacy in %) (Polygonum convolvulus) [%] | Stellaria media (Efficacy in %) (Stellaria media) [%] | Veronica persica (Efficacy in %) (Veronica persica) [%] | Viola tricolor (Efficacy in %) (Viola tricolor) [%] | Oryza sativa (Efficacy in %) (Oryza sativa; application rate 20 g/ha) [%] | Triticum aestivum (Efficacy in %) (Triticum aestivum; application rate 20 g/ha) [%] | Digitaria sanguinalis (Efficacy in %) (Digitaria sanguinalis) [%] | Setaria viridis (Efficacy in %) (Setaria viridis) [%] | Triticum aestivum (Efficacy in %) (Triticum aestivum; application rate 5 g/ha) [%] | Oryza sativa (Efficacy in %) (Oryza sativa; application rate 5 g/ha) [%] | Echinochloa crus-galli (Efficacy in %) (Echinochloa crus-galli) [%]
CC(CC(=O)OCC1CCCO1)Sc1cc(-n2c(=O)cc(C(F)(F)F)n(C)c2=O)c(F)cc1Cl (stereo not shown) [I.49-71] | 100 | 100 | 100 | 100 | 100 | 100 | 100 | 100 | 10 | 20 | – | – | – | – | –
CC(Sc1cc(-n2c(=O)cc(C(F)(F)F)n(C)c2=O)c(F)cc1Cl)C(=O)NCC1CCCCO1 (stereo not shown) [I.1-241] | 100 | 100 | 100 | – | 100 | 100 | 100 | 100 | 10 | – | 100 | 100 | 20 | – | –
Cc1c(C(F)(F)F)n(C)c(=O)n(-c2cc(SCC(C)(C)C(=O)NCC3CCCCO3)c(Cl)cc2F)c1=O (stereo not shown) [I.54-241] | 100 | 100 | – | – | 100 | 80 | 100 | – | 0 | 0 | 80 | 100 | – | – | –
Cc1c(C(F)(F)F)n(C)c(=O)n(-c2cc(SC(CC(C)C)C(=O)NCC3CCCO3)c(Cl)cc2F)c1=O (stereo not shown) [I.14-221] | 90 | 100 | 80 | 100 | 80 | – | 100 | 100 | 10 | 20 | – | – | – | – | –
CC1CC(COC(=O)C(C)(C)CSc2cc(-n3c(=O)cc(C(F)(F)F)n(C)c3=O)c(F)cc2Cl)CO1 (stereo not shown) [I.48-73] | 100 | 100 | 80 | 100 | 80 | 100 | 100 | 100 | 0 | 0 | – | – | – | – | –
CC(CC(=O)NCC1CCCO1)Sc1cc(-n2c(=O)cc(C(F)(F)F)n(C)c2=O)c(F)cc1Cl (stereo not shown) [I.49-221] | 100 | 100 | 90 | 100 | 100 | 90 | 100 | – | 10 | – | – | – | – | – | –
Cn1c(C(F)(F)F)cc(=O)n(-c2cc(SCC(C)(C)C(=O)OCC3CCSC3)c(Cl)cc2F)c1=O (stereo not shown) [I.48-82, Tetrahydrothiophen-3-ylmethyl 3-({2-chloro-4-fluoro-5-[3-methyl-2,6-dioxo-4-(trifluoromethyl)-3,6-dihydropyrimidin-1(2H)-yl]phenyl}sulfanyl)-2,2-dimethylpropanoate] | 100 | 100 | – | – | 100 | – | – | – | – | – | – | – | 0 | – | –
CC(Sc1cc(-n2c(=O)cc(C(F)(F)F)n(C)c2=O)c(F)cc1Cl)C(=O)NC1CCCOC1 (stereo not shown) [I.1-276] | 100 | 100 | 100 | – | 100 | 100 | 100 | 100 | – | – | – | 100 | – | 10 | –
CC(Sc1cc(-n2c(=O)cc(C(F)(F)F)n(C)c2=O)c(F)cc1Cl)C(=O)NCC1COCCO1 (stereo not shown) [I.1-331] | 100 | 100 | 90 | – | – | 80 | 100 | 100 | 10 | – | – | – | – | – | –
CC(CC(=O)OCC1CCOC1)Sc1cc(-n2c(=O)cc(C(F)(F)F)n(C)c2=O)c(F)cc1Cl (stereo not shown) [I.49-72] | 100 | 100 | 90 | – | – | – | 100 | 100 | 10 | – | – | – | – | – | –
CCC(Sc1cc(-n2c(=O)cc(C(F)(F)F)n(C)c2=O)c(F)cc1Cl)C(=O)OCC1COC(C)C1 (stereo not shown) [I.2-73] | 100 | 100 | 100 | – | 100 | 100 | 100 | 100 | 10 | – | – | 90 | – | – | –
CC(Sc1cc(-n2c(=O)cc(C(F)(F)F)n(C)c2=O)c(F)cc1Cl)C(=O)NCCCOCc1ccccc1 (stereo not shown) [I.1-180] | 100 | 100 | 100 | 100 | 100 | 90 | 100 | 100 | 0 | 20 | – | – | – | – | –
CCC(C)C(Sc1cc(-n2c(=O)cc(C(F)(F)F)n(C)c2=O)c(F)cc1Cl)C(=O)OCC1CCCCO1 (stereo not shown) [I.5-91] | 100 | 100 | 90 | 100 | 90 | – | 100 | 100 | – | 10 | – | 90 | – | – | 80

Reference: patent US11497212B2, “Substituted thiophenyl uracils, salts thereof and the use thereof as herbicidal agents” (Syngenta Crop Protection AG, priority 2017, dated 2022)
